In US8865662B2, “Macrolides and their use” (Basilea Pharmaceutica AG, priority 2009, dated 2014):

System: human PDE4
Assay: IMAP FP enzymatic assay of PDE4 inhibition
Assay type: biochemical
Settings: PDE4 partially purified from human monocytic U-937 cells; fluorescently labeled cAMP substrate; 90 minutes at room temperature; fluorescence polarization
Procedure: PDE4 specifically hydrolyzes cAMP and releases the product AMP. The potency of PDE inhibition by said agents is determined in an in vitro enzymatic assay. The assay is commercially available (IMAP™ FP assay Molecular Devices Corp. (MDS)) and is optimized for the use of human PDE4. Fluorescently labeled cAMP is hydrolyzed by PDE4 and in a second step, binding of labeled product to a large binding partner allowed product detection by fluorescence polarization (FP) measurements.
PDE4 is partially purified from undifferentiated human monocytic cells (U-937) according to Thorpy et al. 1992 (J. Pharmacol. Exp. Ther. 263: 1195). […] In addition, PDE4 preparations are validated by inhibition studies with PDE4-specific and unspecific PDE inhibitors.
Stock solutions of test compounds are made in DMSO and diluted in assay buffer (10 mM Tris-HCl, 10 mM MgCl2, 0.1% BSA 0.05% NaN3, pH 7.2) to the desired concentrations. The solutions used in the assay contained test compound in assay buffer with 2% DMSO.
10 μl of substrate (at a concentration recommended by the manufacturer) are mixed with 5 μl of appropriately diluted PDE and 5 μl of test compound solution. 5 μl of reaction buffer with 2% DMSO are used for control reactions. […] After incubation for 90 minutes at room temperature, 60 μl of binding reagent are added as specified by the manufacturer. Binding is allowed to proceed for 30 minutes and fluorescence polarization is measured. Dose dependence of PDE inhibition is measured by assaying dilution series of test compounds in duplicates. IC50 values are determined from the measured activities by curve fitting.

Question: How did the IC50 turn out when `CC[C@H]1OC(=O)[C@H](C)[C@@H](O[C@H]2C[C@@](C)(OC)[C@@H](O)[C@H](C)O2)[C@H](C)[C@@H](O[C@@H]2O[C@H](C)C[C@H](N(C)C(=O)N3CCOCC3)[C@H]2O)[C@](C)(OC)C[C@@H](C)C(=O)[C@H](C)[C@H]2N(CCCN(Cc3c(Cl)cncc3Cl)c3ccc(OC)c(OC4CCCC4)c3)C(=O)O[C@]12C` [Example 1] was run?
Answer: 230 nM

Question: How did the IC50 turn out when `CC[C@H]1OC(=O)[C@H](C)[C@@H](OC(=O)CN2CCOCC2)[C@H](C)[C@@H](O[C@@H]2O[C@H](C)C[C@H](N(C)C(=O)CN(C)C)[C@H]2O)[C@](C)(OC)C[C@@H](C)C(=O)[C@H](C)[C@H]2N(CCCOc3cc(C(=O)Nc4c(Cl)cncc4Cl)ccc3OC)C(=O)O[C@]12C` [Example 5] was run?
Answer: 200 nM

Question: With `CC[C@H]1OC(=O)[C@H](C)[C@@H](O)[C@H](C)[C@@H](O[C@@H]2O[C@H](C)C[C@H](N(C)C(=O)N3CCOCC3)[C@H]2O)[C@](C)(OC)C[C@@H](C)C(=O)[C@H](C)[C@H]2N(CCCOc3cc(C(=O)Nc4c(Cl)cncc4Cl)ccc3OC)C(=O)O[C@]12C` [Example 4] as the molecule, how does the IC50 read?
Answer: 30 nM

Question: For `CC[C@H]1OC(=O)[C@H](C)[C@@H](O[C@H]2C[C@@](C)(OC)[C@@H](O)[C@H](C)O2)[C@H](C)[C@@H](O[C@@H]2O[C@H](C)C[C@H](N(C)C(=O)N3CCOCC3)[C@H]2O)[C@](C)(OC)C[C@@H](C)C(=O)[C@H](C)[C@H]2N(CCCOc3cc(C(=O)Nc4c(Cl)cncc4Cl)ccc3OC)C(=O)O[C@]12C` [Example 3], which IC50 is on record?
Answer: 630 nM

Question: How did the IC50 turn out when `CC[C@H]1OC(=O)[C@H](C)[C@@H](O)[C@H](C)[C@@H](O[C@@H]2O[C@H](C)C[C@H](N(C)C(=O)N3CCOCC3)[C@H]2O)[C@](C)(OC)C[C@@H](C)C(=O)[C@H](C)[C@H]2N(CCCN(Cc3c(Cl)cncc3Cl)c3ccc(OC)c(OC4CCCC4)c3)C(=O)O[C@]12C` [Example 2] was run?
Answer: 880 nM
